How the values were obtained:
Format in all cases: binding
[1] = molecular target: T1, wtKRAS/RAF1 (Homo sapiens, UniProt P01116); experiment: Protein-protein interaction (PPI) HTRF assay w.t.KRAS/RAF1
T1 construct: KRAS (1-169) proteins were expressed in E. coli at 18° C; His6-MBP (N, cleaved yes); made in house; host or cells: E. coli
Description: (§1) Biotinylated KRAS wt and KRAS G12DNV proteins were expressed and purified in conditions similar to those previously reported (Tran, et al., 2021) (Zhang, et al., 2020). Briefly, KRAS (1-169) proteins were expressed in E. coli at 18° C. with an upstream TEV cleavage site (ENLFYQS) followed an Avi tag sequence ([…]). KIRAS expression constructs contained both a His6 and maltose-binding protein (MBP) tags at the N-terminus for Ni-NTA column purification prior to overnight TEV cleavage and MBP column purification. The avi-tagged NRAS expression construct contained both a His6 tag and SUMO cleavage sige at the N-terminus for Ni-NTA column purification followed by His-ULP1 digestion overnight. All avi-tagged RAS proteins were dialyzed into buffer containing ATP, biotin, and BirA followed by purification over a second Ni-NTA column and then run over a size exclusion HiLoad™ 26/600 Superdex™ column in 20 mM HEPES, pH 7.5, 300 mM NaCl, 5 mM MgCl2, and 1 mM TCEP. Fractions containing the protein of interest were pooled, concentrated, and confirmed by intact mass spectrometry. To prepare ‘GTP’ loaded KRAS and NRAS, biotinylated KRAS or NRAS was nucleotide exchanged from GDP-bound protein to GppNHp-bound (Jena Biosciences, NU-401-50) protein in the presence of alkaline phosphatase and excess GppNHp as previously described and the resulting nucleotide content was confirmed by HPLC reverse phase analytical chromatography (Donohue, et al., 2019) (Tran, et al., 2021).
(§2) His-tagged RAF1 (52-131) was similarly expressed in E. coli at 18° C. overnight with an upstream TEV cleavage site. His-tagged RAF1 expression construct contained both a His6 and MBP tags at the N-terminus for Ni-NTA column purification followed by MBP-tagged TEV digestion overnight. RAF1 protein samples were further purified over a MBP column followed by a Ni-NTA column and a second MBP column. The fractions containing the protein of interest were pooled, concentrated, and further purified over a HiLoad™ 16/600 Superdex™ 75 pg size exclusion column into 20 mM HEPES, pH8.0, 200 mM NaCl, 5 mM TCEP.
(§3) When RAS proteins are in the active GTP-bound conformation, they bind the effector protein RAF1 at the N-terminus Ras-binding domain (RBD, residues 52-131) (Tran, et al., 2021). Homogenous time resolved fluorescence (HTRF) was used to monitor the interaction between wt or mutant KRAS and RAF1 or wt NRAS and RAFT. Compounds were assayed in the presence of KRAS G12D/V and RAF1 versus wt KRAS to assess activity against mutant and w.t. KRAS. Similarly, compounds were then assayed in the presence of w.t. NRAS and RAF1 to assess RAS isoform selectivity. In all assay formats, His-tagged RAF1 protein was incubated with the HTRF donor, anti-6His Tb Cryptate gold (Cisbio 61DB10RDF), and biotinylated RAS proteins were incubated with the HTRF acceptor, streptavidin-d2 (CisBio 610SADLA). The intensity of the fluorescence signal emitted is proportional to binding between the two proteins. The donor solution was prepared by mixing 16 nM His-tagged RAF1 in protein dilution buffer with 1:100 anti-6His Tb cryptate in PPI-Terbium detection buffer. 16 nM biotinylated RAS protein was diluted into protein dilution buffer (50 mM Tris-HCl pH 7.5, 150 mM NaCl, 0.1 mM MgCl2, 1 mM TCEP, 0.005% Tween20) and mixed with 1:2000 Streptavidin-d2 diluted in PPI-Terbium detection buffer (CisBio 61DB10RDF). 50× compound in DMSO was mixed with 16 nM KRAS-acceptor solution and incubated for 30 minutes at room temperature. After compound pre-incubation with KRAS, the RAF1 donor solution was added to the KRAS-acceptor solution and incubated for 1 hour at room temperature. The fluorescence signal emitted was monitored at 665 nm and 615 nm using an Envision multimode plate reader. The HTRF ratio (665/615) was calculated and normalized to 0% inhibition in the absence of compound and 100% inhibition in the presence of untagged RAF1 protein. […]

[2] = molecular target: T2, wtNRAS/RAF1 (Homo sapiens, UniProt P01111); experiment: Protein-protein interaction (PPI) HTRF assay w.t.NRAS/RAF1
T2 construct: (1-169); His6-SUMO (N, cleaved yes); made in house; host or cells: E. coli (printed for the KRAS and RAF1 constructs; not explicitly for NRAS)
Description: as §1, §2, §3

[3] = molecular target: T3, KRAS G12D/RAF1 (Homo sapiens, UniProt P01116, G12D); experiment: Protein-protein interaction (PPI) HTRF assay KRAS G12D/RAF1; details: KRAS G12D/RAF1, GppNHp-loaded KRAS; 30 minutes pre-incubation
T3 construct: KRAS (1-169) proteins were expressed in E. coli at 18° C; His6-MBP (N, cleaved yes); made in house; host or cells: E. coli
Method in brief: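 Biotinylated GppNHp-loaded RAS (1-169) on streptavidin-d2 acceptor and His-RAF1 RBD (52-131) on anti-His Tb donor, each prepared at 16 nM in pH 7.5 Tris buffer. Compound preincubated with RAS 30 min, then RAF1 added for 1 h at room temperature. IC50 from HTRF 665/615 ratio, normalized to no compound (0%) and untagged RAF1 (100%).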

[4] = molecular target: T4, KRAS G12V/RAF1 (Homo sapiens, UniProt P01116, G12V); experiment: Protein-protein interaction (PPI) HTRF assay KRAS G12V/RAF1; details: KRASG12V/RAF1
T4 construct: KRAS (1-169) proteins were expressed in E. coli at 18° C; His6-MBP (N, cleaved yes); made in house; host or cells: E. coli
Description: as §1, §2, §3

T3 sequence (P01116 1-169 isoform P01116-2 G12D): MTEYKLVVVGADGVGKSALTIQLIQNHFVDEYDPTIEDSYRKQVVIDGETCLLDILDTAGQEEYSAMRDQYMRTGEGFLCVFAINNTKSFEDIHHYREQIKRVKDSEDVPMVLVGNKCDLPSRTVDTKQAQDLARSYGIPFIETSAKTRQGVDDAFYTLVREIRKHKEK
T1 sequence (P01116 1-169 isoform P01116-2): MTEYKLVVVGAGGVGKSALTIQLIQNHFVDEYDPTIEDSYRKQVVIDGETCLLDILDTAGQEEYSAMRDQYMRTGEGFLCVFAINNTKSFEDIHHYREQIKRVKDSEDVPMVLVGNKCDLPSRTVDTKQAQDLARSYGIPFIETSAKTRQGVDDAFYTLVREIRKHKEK
T2 sequence (P01111 1-169): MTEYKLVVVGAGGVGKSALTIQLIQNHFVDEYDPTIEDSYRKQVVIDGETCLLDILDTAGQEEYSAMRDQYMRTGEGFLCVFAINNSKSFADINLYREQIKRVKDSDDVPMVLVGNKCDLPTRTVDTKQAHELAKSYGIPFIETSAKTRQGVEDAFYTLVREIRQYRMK
T4 sequence (P01116 1-169 isoform P01116-2 G12V): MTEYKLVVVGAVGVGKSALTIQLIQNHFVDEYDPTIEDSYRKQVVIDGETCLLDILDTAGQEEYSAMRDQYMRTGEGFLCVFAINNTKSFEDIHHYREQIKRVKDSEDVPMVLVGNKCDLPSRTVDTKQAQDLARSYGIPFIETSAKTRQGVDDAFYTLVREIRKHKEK

Question: For `CN(C)C(=O)c1nn2c(c1Cl)CN(c1nc(OC[C@@]34CCCN3C[C@H](F)C4)nc3c1CN(C)[C@@]1(CCc4ccccc41)C3)CCC2` [Compound 53, 3-chloro-5-[(7S)-2-[[(2R,8S)-2-fluoro-1,2,3,5,6,7-hexahydropyrrolizin-8-yl]methoxy]-6-methyl-spiro[5,8-dihydropyrido[4,3-d]pyrimidine-7,1′-indane]-4-yl]-N,N-dimethyl-4,6,7,8-tetrahydropyrazolo[1,5-a][1,4]diazepine-2-carboxamide], which IC50 [1] is on record?
Answer: Its IC50 is 10 to 100 µM.

Question: What about the IC50 [2] of the same molecule?
Answer: Its IC50 is greater than 100 µM.

Question: What about the IC50 [3] of the same molecule?
Answer: The IC50 was 10 to 100 µM.

Question: And the IC50 [4]?
Answer: Its IC50 is 10 to 100 µM.

— patent US11912723B2, “KRAS modulators and uses thereof” (Quanta Therapeutics, Inc., priority 2022, dated 2024)
